Measured values published in ChEMBL document CHEMBL3301472, “MMV Malaria Box HIV and cytotoxicity screening”.

Assays:
Format in all cases: toxicity, cell-based
[1] = MMV: MTT Cytotoxicity Assay Day 7 pi of Assay #11 (NO washout), U87-CD4-CXCR4 cells, % cell death @ 5mM compound; settings: human, u87-cd4-cxcr4, 5000 µM
[2] = MMV: MTT Cytotoxicity Assay Day 7 pi of Assay #7 (compound washed out Day 1 pi), U87-CD4-CXCR4 cells, % cell death @ 5mM compound; settings: human, u87-cd4-cxcr4, 5000 µM
[3] = MMV: MTT Cytotoxicity Assay Day 3 pi, U87-CD4-CXCR4 cells, % cell death @ 5mM compound; settings: human, u87-cd4-cxcr4, 5000 µM
[4] = MMV: MTT Cytotoxicity Assay Day 7 pi of Assay #10 (NO washout), U87-CD4-CCR5 cells, % cell death @ 5mM compound; settings: human, u87-cd4-ccr5, 5000 µM
[5] = MMV: MTT Cytotoxicity Assay Day 7 pi of Assay #6 (compound washed out Day 1 pi), U87-CD4-CCR5 cells, % cell death @ 5mM compound; settings: human, u87-cd4-ccr5, 5000 µM
[6] = MMV: MTT Cytotoxicity Assay Day 3 pi, U87-CD4-CCR5 cells, % cell death @ 5mM compound; settings: human, u87-cd4-ccr5, 5000 µM

Compound	% Cell Death [1]	% Cell Death [2]	% Cell Death [3]	% Cell Death [4]	% Cell Death [5]	% Cell Death [6]
COc1ccc(-c2cc3c(nn2)-c2ccccc2C3=O)cc1	101	13	49	75	30	71
COc1ccc2c(c1)C1(Nc3ccccc3-c3nc4ccccc4n31)C(=O)N2 (centres undefined)	9	-24	13	29	-9	-75
CCOc1c(Cl)cc(CNCC(O)c2ccccc2)cc1OC (centres undefined)	-40	-17	21	2	20	14
COc1ccc2nc(C)cc(Nc3ccccc3O)c2c1	-34	-12	30	6	14	5
c1ccc(/C2=N/c3ccccc3/N=C(/c3ccccc3)c3ccccc32)cc1	7	-11	28	16	0	-3
O=C1c2ccccc2-c2nnc(-c3ccc(Br)cc3)cc21	-24	4	16	24	1	2
Cc1nc2ccccc2c(O)c1CC=C(Cl)Cl	-3	20	30	26	-2	19
FC(F)(F)c1cccc(Nc2nc3ccccc3nc2Nc2cccc(C(F)(F)F)c2)c1	-12	3	15	25	15	-15
COc1ccc(CN2CCCC(C(=O)c3ccc(C(F)(F)F)cc3)C2)c(O)c1 (centres undefined)	109	97	89	105	104	107
O=C(NC1CCCCC1)C(c1cccs1)N(CCc1ccccc1)C(=O)c1ccco1 (centres undefined)	97	61	54	90	90	93
COc1ccc(C(=O)NC(c2ccc(Cl)cc2Cl)c2cc(Cl)c3cccnc3c2O)cc1 (centres undefined)	102	18	58	84	1	42
Cl.c1ccc2c(NCCCCCCNc3c4c(nc5ccccc35)CCCC4)c3c(nc2c1)CCCC3	9	-18	32	34	-1	12
Brc1ccc(Nc2nc3ccccc3nc2Nc2ccc(Br)cc2)cc1	-26	-10	20	28	-14	15
Nc1ccc(-c2nc3cc(Cc4ccc5[nH]c(-c6ccc(N)cc6)nc5c4)ccc3[nH]2)cc1	110	82	57	98	69	88
N=c1c2ccccc2nnn1-c1cccc(C(F)(F)F)c1	112	86	99	101	68	106
COc1cc(-c2nc(-c3ccc(Sc4ccccc4)cc3)c(-c3ccccc3)[nH]2)cc(OC)c1O	-41	-13	29	33	5	18
O=c1cc(NC2CCN(CCCc3ccccc3)CC2)c2cc(Cl)ccc2o1	-41	37	19	31	-6	16
CCOc1ccc(-n2cc(-c3ccccc3)c3c(SCc4cc(C)ccc4C)ncnc32)cc1	11	-9	29	-1	11	3
CC1CCN(Cc2c(O)ccc3cc(-c4nc5ccccc5s4)c(=O)oc23)CC1	9	-13	33	30	16	12
O=C(Nc1ccc(C23CC4CC(CC(c5ccccc5)(C4)C2)C3)cc1)c1cccs1	109	98	95	77	109	107

Compound	% Cell Death [1]	% Cell Death [2]	% Cell Death [3]	% Cell Death [4]	% Cell Death [5]	% Cell Death [6]
O=C1c2ccccc2C2=Nc3ccccc3SC(c3cccc(F)c3)C12 (centres undefined)	4	28	20	7	-3	11
O=C(Nc1ccc(-c2nc3cc4ccccc4cc3[nH]2)cc1)c1cccc(Br)c1	-33	-24	42	7	13	16
Cc1ccc2nc(C)cc(Nc3cccc(C(F)(F)F)c3)c2c1.Cl	44	-9	38	72	15	-13
COc1ccc(N2CCN(C(CNC(=O)CC(C)(C)C)c3ccc4c(c3)OCO4)CC2)cc1 (centres undefined)	37	22	38	44	6	-2
COc1cccc(C(=O)NC(c2ccc(C)cc2)c2cc(Cl)c3cccnc3c2O)c1 (centres undefined)	-24	-4	68	26	23	88
CCOC(=O)C1(Cc2ccccc2)CCN(Cc2cccc(OC)c2O)CC1	-36	-16	29	21	15	0
Oc1ccc(C(=C(Cl)Cl)c2ccc(O)cc2)cc1	103	36	75	84	-14	80
CCOc1ccc2c(c1)CN(Cc1ccc(Cl)cc1)CO2	20	-14	32	13	11	8
CC(C)(C)c1ccc2c(c1)CN(Cc1ccc(Cl)cc1)CO2	-36	18	37	23	66	64
Clc1ccc2[nH]c3c(NCCCN4CCOCC4)ncnc3c2c1	118	91	100	141	105	110
COc1ccc(C(=O)NC(c2ccccc2Cl)c2cc(Cl)c3cccnc3c2O)cc1 (centres undefined)	6	3	81	11	23	50
COc1ccc2c(c1OC)C(=O)N1c3ccccc3N=C(c3ccc(C)cc3)CC21 (centres undefined)	102	1	72	78	17	87
CCCCCCc1cc(O)c2c3c(c(=O)oc2c1)CCC(C)C3 (centres undefined)	9	16	20	26	16	16
Cc1ccc(F)cc1NC(=O)c1cc(Cl)ccc1Nc1ccccc1	-27	-2	25	28	8	7
CC1=C(CC(=O)c2cccc([N+](=O)[O-])c2)C(=O)c2ccccc2C1=O	106	91	76	94	100	92
OC1=C2C(=Nc3ccccc3SC2c2ccc(Br)cc2)c2ccccc21 (centres undefined)	0	7	31	30	-10	11
COc1ccc(C)c2sc(N(Cc3cccnc3)C(=O)c3ccc(C#N)cc3)nc12	-39	-6	24	13	-1	-7
Cc1cc(N2CCN(C3CCCC3)CC2)n2c(nc3ccccc32)c1C#N	-3	-24	44	35	48	35
CCCCCn1c(=N)n(CC(O)COc2cccc(C)c2)c2ccccc21.Cl (centres undefined)	110	60	71	115	65	99
